# Measured values: patent publication US11787816B2, “Chlorin compound, and preparation and use thereof” (Southwest Jiaotong University, priority 2021, dated 2023)
# Assays:
# [1] = tested on: murine mammary carcinoma 4T1 cells; test: Photosensitizer-mediated PDT, in vitro proliferation (MTT), 4T1; type: cell-based
# Description: (§1) Several kinds of tumor cells (human cervical cancer Hela cells, human hepatocellular carcinoma huh-7 cells and murine mammary carcinoma 4T1 cells) cultured in vitro from a variety of tissues were taken as cell models, so as to investigate the photodynamic effects mediated by different doses of CEFN, CEFO, Ce6 and HPPH on the three different tumor cells (n=3). The specific experimental procedures were carried out as follows.
# (§2) Cells in the logarithmic growth phase were harvested and seeded in a 24-well plate. After growing to a confluence of 70-80%, the cells were randomly divided into a control group (free of drug and light irradiation), a drug group and a photodynamic group. The CEFN, CEFO, Ce6 and HPPH were added respectively in dark, and for each drug, four final concentrations 1, 2, 5, and 10 μg/mL were set with 3 replicates for each group. After the co-incubation, the groups were treated individually. Regarding the photodynamic group, the light irradiation was performed at a wavelength of 660 nm and three different light intensities, i.e., 2, 4 and 8 J/cm^2. After that, each group was digested, and were inoculated into a 96-well plate at 100 μL per well with 4 replicates for each treatment. 24 hours later, the 96-well plate was subjected to MTT assay as follows. Each well was added with 20 μL of MTT (3-4,5-dimethylthiazol-2,5-diphenyltetrazolium bromide) solution in the dark and incubated for 4 hours. The supernatant was discarded, and the residue was dissolved with 150 μL of dimethyl sulfoxide for 15 min. After that, the 96-well plate was measured by a microplate reader for the absorbance (OD value). The relative cell viability was calculated as follows: relative cell viability=OD value of experimental group/OD value of control group*100%.
# In this experiment, photodynamic effect mediated by the compounds (except CEFO and CEFN) in different Examples of this disclosure on the murine mammary carcinoma 4T1 cells was investigated. The experimental procedures are carried out as follows. Cells in the logarithmic growth phase were harvested and seeded in a 24-well plate. After growing to a confluence of 70-80%, the cells were randomly divided into multiple photodynamic groups and multiple no-light control groups. The compounds (as shown in Table 8a) with a final concentration of 10 μg/mL were added to each group respectively in dark with 3 replicates for each group, so as to co-incubate the cells with the drug. Regarding the multiple photodynamic groups, the light irradiation was performed at a wavelength of 660 nm and the light intensity of 8 J/cm^2. After that, each group was digested, and were inoculated into a 96-well plate at 100 μL per well with 4 replicates for light treatment and no light treatment. 24 hours later, the 96-well plate was measured by MTT assay as follows. Each well was added with 20 μL of MTT (3-4,5-dimethylthiazol-2,5-diphenyltetrazolium bromide) solution in the dark and incubated for 4 hours. The supernatant was discarded, and the residue was dissolved with 150 μL of dimethyl sulfoxide for 15 min. After that, the 96-well plate was measured by a microplate reader for the absorbance (OD value). The relative cell viability of the murine mammary carcinoma 4T1 cells was calculated as follows according to the measured absorbance (OD value) in each group: relative cell viability=OD value of experimental group/OD value of control group*100%.
# [2] = tested on: murine mammary carcinoma 4T1 cells; test: Antitumor activity as photosensitizers on tumor-bearing mice (two PDT treatments); type: in vivo; details: for Inhibitory rate (average ± SD, %) / Tumor weight (average ± SD, g): 0.25 mg/kg tail vein, two PDT treatments one week apart, 660 nm, 150 Joule/cm^2, 14 days after treatment; for Body weight At the beginning / Body weight At the end: 0.25 mg/kg, two PDT treatments, mice, in g (unit assumed)
# Description: (§3) The murine mammary carcinoma cells (4T1 line) were subjected to adherent culture. After growing to a confluence of 70%-80%, the cells in the culture flask were routinely digested, centrifuged and counted, and then resuspended with 0.85% normal saline to a density of 1×10^7 cells/mL. The cell suspension was injected into the left lateral middle axillary subcutaneous part of […] Bal b/c healthy mice (female, aged 6-8 weeks) at 0.1 mL/mouse. When the tumor diameter, which was observed every other day, reached 0.6-0.8 cm, the mice with well-growing tumors and no ulcers on the epidermis were selected for grouped treatment.
# (2) Mice with similar body weight and uniform tumor size are selected and randomly divided into 4 groups with 6 mice for each group. After inoculation of 4T1 cells and the tumor volume grows to 50˜80 mm^3, the mice were subjected to a first drug administration from the tail vein by group.
# 6 h after the drug administration, the mice were fixed to expose the tumor growth site. As a first PDT treatment, light irradiation was performed for 8 min, using PDT-660 photodynamic therapy equipment at the laser wavelength of 660 nm and the light dose of 150 Joule/cm^2. One week later, the second PDT treatment (the dosage and lighting conditions were the same as those of the first PDT treatment) was performed. The mice were sacrificed 14 days after the treatment. The tumor was removed, weighed and recorded.
# [3] = tested on: human hepatocellular carcinoma huh-7 cells; test: Photosensitizer-mediated PDT, in vitro proliferation (MTT), huh-7; type: cell-based
# Description: as §1, §2
# [4] = tested on: murine mammary carcinoma 4T1 cells; test: Antitumor activity as sonosensitizers (SDT) on tumor-bearing mice; type: in vivo; details: for Inhibitory rate (average ± SD, %) / Tumor weight (average ± SD, g): SDT 1.0 MHz, 3.0 W/cm^2, 3 min, 6 h after dosing, 7 days after SDT; for Body weight At the beginning / Body weight At the end: SDT, mice, in g (unit assumed)
# Description: as §3
# Mice with similar body weight and uniform tumor size are selected and randomly divided into 6 groups with 6 mice for each group. 48 h after inoculation, the mice were subjected to drug administration separately from the tail vein by group.
# […] 6 h after drug administration, each group of mice was anesthetized by intraperitoneal injection with 0.2 mL of 1% pentobarbital sodium. Then the mice were fixed to allow the tumor growth site exposed. The SDT group was treated using an ultrasonic therapeutic apparatus at an impulse waveform of 1.0 MHz and power of 3.0 W/cm^2 for 3 min. 7 days after SDT, the animals were sacrificed. The tumor was stripped and weighed, and the body weight was recorded.
substance,measurement,setting,value
3-hexoxymethyl-3-devinyl-chlorin e4 disodium salt [CEFO],cell viability (%),"[1]; 1 μg/mL, 660 nm, 2 J/cm^2",86 ± 3%
same,cell viability (%),"[1]; 1 μg/mL, 660 nm, 4 J/cm^2",84 ± 4%
same,cell viability (%),"[1]; 1 μg/mL, 660 nm, 8 J/cm^2",78 ± 3%
same,cell viability (%),"[1]; 1 μg/mL, no light",103 ± 2%
same,cell viability (%),"[1]; 2 μg/mL, 660 nm, 2 J/cm^2",67 ± 3%
same,cell viability (%),"[1]; 2 μg/mL, 660 nm, 4 J/cm^2",41 ± 3%
same,cell viability (%),"[1]; 2 μg/mL, 660 nm, 8 J/cm^2",39 ± 2%
same,cell viability (%),"[1]; 2 μg/mL, no light",103 ± 2%
same,cell viability (%),"[1]; 5 μg/mL, 660 nm, 2 J/cm^2",38 ± 2%
same,cell viability (%),"[1]; 5 μg/mL, 660 nm, 4 J/cm^2",21 ± 2%
same,cell viability (%),"[1]; 5 μg/mL, 660 nm, 8 J/cm^2",19 ± 42%
same,cell viability (%),"[1]; 5 μg/mL, no light",99 ± 2%
same,cell viability (%),"[1]; 10 μg/mL, 660 nm, 2 J/cm^2",29 ± 1%
same,cell viability (%),"[1]; 10 μg/mL, 660 nm, 4 J/cm^2",5 ± 1%
same,cell viability (%),"[1]; 10 μg/mL, 660 nm, 8 J/cm^2",3 ± 1%
same,cell viability (%),"[1]; 10 μg/mL, no light",100 ± 3%
same,"Inhibitory rate (average ± SD, %)",[2],96.9 ± 3.1%
same,"Tumor weight (average ± SD, g)",[2],0.029 ± 0.028 g
same,Body weight At the beginning,[2],20.2 ± 0.2
same,Body weight At the end,[2],22.2 ± 0.5
same,cell viability (%),"[3]; 1 μg/mL, 660 nm, 2 J/cm^2",63 ± 3%
same,cell viability (%),"[3]; 1 μg/mL, 660 nm, 4 J/cm^2",60 ± 3%
same,cell viability (%),"[3]; 1 μg/mL, 660 nm, 8 J/cm^2",53 ± 3%
same,cell viability (%),"[3]; 1 μg/mL, no light",99 ± 2%
same,cell viability (%),"[3]; 2 μg/mL, 660 nm, 2 J/cm^2",58 ± 1%
same,cell viability (%),"[3]; 2 μg/mL, 660 nm, 4 J/cm^2",53 ± 3%
same,cell viability (%),"[3]; 2 μg/mL, 660 nm, 8 J/cm^2",30 ± 2%
same,cell viability (%),"[3]; 2 μg/mL, no light",99 ± 2%
same,cell viability (%),"[3]; 5 μg/mL, 660 nm, 2 J/cm^2",39 ± 2%
same,cell viability (%),"[3]; 5 μg/mL, 660 nm, 4 J/cm^2",24 ± 2%
same,cell viability (%),"[3]; 5 μg/mL, 660 nm, 8 J/cm^2",27 ± 1%
same,cell viability (%),"[3]; 5 μg/mL, no light",97 ± 3%
same,cell viability (%),"[3]; 10 μg/mL, 660 nm, 2 J/cm^2",25 ± 2%
same,cell viability (%),"[3]; 10 μg/mL, 660 nm, 4 J/cm^2",9 ± 1%
same,cell viability (%),"[3]; 10 μg/mL, 660 nm, 8 J/cm^2",7 ± 1%
same,cell viability (%),"[3]; 10 μg/mL, no light",93 ± 4%
same,"Inhibitory rate (average ± SD, %)",[4]; 2.5 mg/kg tail vein,64.3 ± 4.3%
same,"Tumor weight (average ± SD, g)",[4]; 2.5 mg/kg tail vein,0.061 ± 0.007 g
same,Body weight At the beginning,[4]; 2.5 mg/kg,20.4 ± 0.3
same,Body weight At the end,[4]; 2.5 mg/kg,21.4 ± 0.3
same,"Inhibitory rate (average ± SD, %)",[4]; 5 mg/kg tail vein,84.2 ± 2.9%
same,"Tumor weight (average ± SD, g)",[4]; 5 mg/kg tail vein,0.027 ± 0.004 g
same,Body weight At the beginning,[4]; 5 mg/kg,20.2 ± 0.2
same,Body weight At the end,[4]; 5 mg/kg,21.3 ± 0.2
3-n-hexylaminomethyl-3-devinyl-chlorin e4 disodium salt [CEFN],cell viability (%),"[1]; 1 μg/mL, 660 nm, 2 J/cm^2",97 ± 2%
same,cell viability (%),"[1]; 1 μg/mL, 660 nm, 4 J/cm^2",89 ± 3%
same,cell viability (%),"[1]; 1 μg/mL, 660 nm, 8 J/cm^2",81 ± 3%
same,cell viability (%),"[1]; 1 μg/mL, no light",97 ± 3%
same,cell viability (%),"[1]; 2 μg/mL, 660 nm, 2 J/cm^2",79 ± 3%
same,cell viability (%),"[1]; 2 μg/mL, 660 nm, 4 J/cm^2",52 ± 2%
same,cell viability (%),"[1]; 2 μg/mL, 660 nm, 8 J/cm^2",39 ± 2%
same,cell viability (%),"[1]; 5 μg/mL, 660 nm, 2 J/cm^2",59 ± 2%
same,cell viability (%),"[1]; 5 μg/mL, 660 nm, 4 J/cm^2",24 ± 3%
same,cell viability (%),"[1]; 5 μg/mL, 660 nm, 8 J/cm^2",18 ± 1%
same,cell viability (%),"[1]; 5 μg/mL, no light",98 ± 2%
same,cell viability (%),"[1]; 10 μg/mL, 660 nm, 2 J/cm^2",38 ± 3%
same,cell viability (%),"[1]; 10 μg/mL, 660 nm, 4 J/cm^2",10 ± 2%
same,cell viability (%),"[1]; 10 μg/mL, 660 nm, 8 J/cm^2",8 ± 3%
same,cell viability (%),"[1]; 10 μg/mL, no light",101 ± 3%
same,"Inhibitory rate (average ± SD, %)",[2],86.1 ± 3.5%
same,"Tumor weight (average ± SD, g)",[2],0.132 ± 0.032 g
same,Body weight At the beginning,[2],20.3 ± 0.3
same,Body weight At the end,[2],22.4 ± 0.4
same,cell viability (%),"[3]; 1 μg/mL, 660 nm, 2 J/cm^2",101 ± 3%
same,cell viability (%),"[3]; 1 μg/mL, 660 nm, 4 J/cm^2",78 ± 3%
same,cell viability (%),"[3]; 1 μg/mL, 660 nm, 8 J/cm^2",90 ± 3%
same,cell viability (%),"[3]; 1 μg/mL, no light",97 ± 2%
same,cell viability (%),"[3]; 2 μg/mL, 660 nm, 2 J/cm^2",87 ± 2%
same,cell viability (%),"[3]; 2 μg/mL, 660 nm, 4 J/cm^2",68 ± 2%
same,cell viability (%),"[3]; 2 μg/mL, 660 nm, 8 J/cm^2",64 ± 3%
same,cell viability (%),"[3]; 2 μg/mL, no light",95 ± 3%
same,cell viability (%),"[3]; 5 μg/mL, 660 nm, 2 J/cm^2",61 ± 2%
same,cell viability (%),"[3]; 5 μg/mL, 660 nm, 4 J/cm^2",55 ± 3%
same,cell viability (%),"[3]; 5 μg/mL, 660 nm, 8 J/cm^2",47 ± 2%
same,cell viability (%),"[3]; 5 μg/mL, no light",93 ± 3%
same,cell viability (%),"[3]; 10 μg/mL, 660 nm, 2 J/cm^2",50 ± 2%
same,cell viability (%),"[3]; 10 μg/mL, 660 nm, 4 J/cm^2",12 ± 3%
same,cell viability (%),"[3]; 10 μg/mL, 660 nm, 8 J/cm^2",9 ± 2%
same,cell viability (%),"[3]; 10 μg/mL, no light",93 ± 1%
same,"Inhibitory rate (average ± SD, %)",[4]; 2.5 mg/kg tail vein,42.1 ± 4.2%
same,"Tumor weight (average ± SD, g)",[4]; 2.5 mg/kg tail vein,0.099 ± 0.007 g
same,Body weight At the beginning,[4]; 2.5 mg/kg,20.5 ± 0.3
same,Body weight At the end,[4]; 2.5 mg/kg,21.6 ± 0.2
same,"Inhibitory rate (average ± SD, %)",[4]; 5 mg/kg tail vein,66.7 ± 3.0%
same,"Tumor weight (average ± SD, g)",[4]; 5 mg/kg tail vein,0.057 ± 0.005 g
same,Body weight At the beginning,[4]; 5 mg/kg,20.3 ± 0.2
same,Body weight At the end,[4]; 5 mg/kg,21.3 ± 0.3
